For 17 compounds, T/C results are on record in PubChem BioAssay AID248 (DTP/NCI, 2004).

SMILES strings stand for the structures. Values joined by “and” are separate entries in the source; they are usually repeats but may differ in a detail not shown here. Equal entries are not always repeated. Toxic doses and inconclusive results are not listed.

The assay concerns L1210 leukemia ip in BDF1 mice, survival T/C. Kind of assay: NCI In Vivo Anticancer Drug Screen. Data for tumor model L1210 Leukemia (intraperitoneal) in B6D2F1 (BDF1) mice. Particulars: endpoint: mean survival time, higher = longer survival. In outline:
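Antitumor effect is assessed in tumor-bearing animals. Survival in the compound arm is compared with a vehicle-dosed control arm and expressed as their quotient.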

[1] abbreviates: dose: 100.0 mg/kg/injection, schedule: Q04DX003 (ip), vehicle: Klucel (hydroxypropylcellulose) (HPC).
[2] abbreviates: dose: 200.0 mg/kg/injection, schedule: Q04DX003 (ip), vehicle: Klucel (hydroxypropylcellulose) (HPC).
Setting [3] is: dose: 400.0 mg/kg/injection, schedule: Q04DX003 (ip), vehicle: Klucel (hydroxypropylcellulose) (HPC).
Setting [4] is: dose: 50.0 mg/kg/injection, schedule: Q01DX009 (ip), vehicle: Klucel (hydroxypropylcellulose) (HPC).
[5] abbreviates: dose: 50.0 mg/kg/injection, schedule: Q01DX001 (ip), vehicle: saline.
[6] abbreviates: dose: 100.0 mg/kg/injection, schedule: Q01DX001 (ip), vehicle: saline.
Where [7] appears, read: dose: 200.0 mg/kg/injection, schedule: Q01DX001 (ip), vehicle: saline.
Setting [8] is: dose: 400.0 mg/kg/injection, schedule: Q01DX001 (ip), vehicle: saline.
The mark [9] stands for this setting: dose: 30.0 mg/kg/injection, schedule: Q01DX009 (ip), vehicle: saline.
The mark [10] stands for this setting: dose: 100.0 mg/kg/injection, schedule: Q04DX002 (ip), vehicle: Klucel (hydroxypropylcellulose) (HPC).
[11] abbreviates: dose: 200.0 mg/kg/injection, schedule: Q04DX002 (ip), vehicle: Klucel (hydroxypropylcellulose) (HPC).

In the case of `C[N+]1(C2CCCCC2)CCCCC1`, the T/C is, setting by setting: (dose: 10.0 mg/kg/injection, schedule: Q01DX001 (ip), vehicle: acetone) 96 % of control; (dose: 10.0 mg/kg/injection, schedule: Q01DX001 (ip), vehicle: saline) 98 % of control; (dose: 20.0 mg/kg/injection, schedule: Q01DX001 (ip), vehicle: acetone) 95 % of control; (dose: 20.0 mg/kg/injection, schedule: Q01DX001 (ip), vehicle: saline) 95 % of control; (dose: 40.0 mg/kg/injection, schedule: Q01DX001 (ip), vehicle: acetone) 102 % of control; (dose: 40.0 mg/kg/injection, schedule: Q01DX001 (ip), vehicle: saline) 93 % of control. For the same compound, for the setting “dose: 75.0 mg/kg/injection, schedule: Q01DX001 (ip), vehicle: saline”, the T/C is 101 % of control.
Take `CC1(C)C/C(=N/O)C/C(=N\O)C1`: the T/C is, setting by setting: (dose: 25.0 mg/kg/injection, schedule: Q04DX003 (ip), vehicle: Klucel (hydroxypropylcellulose) (HPC)) 95 % of control; (dose: 50.0 mg/kg/injection, schedule: Q04DX003 (ip), vehicle: Klucel (hydroxypropylcellulose) (HPC)) 96 % of control.
Take `O=C(/C=C(\Cl)C(=O)NO)NO`: the T/C (dose: 100.0 mg/kg/injection, schedule: Q01DX009 (ip), vehicle: acetone) was 102 % of control.
Consider `O=[N+]([O-])c1ccc(Oc2c(Cl)cccc2Cl)cc1`, for which the T/C under setting [1] was 96 % of control, the T/C under setting [2] was 95 % of control and the T/C under setting [3] was 96 % of control.
`O=C(CNC(=O)NCc1ccco1)N/N=C/c1ccc(Cl)c(Cl)c1`: the T/C by setting is: under setting [4], 89 % of control; (dose: 100.0 mg/kg/injection, schedule: Q01DX009 (ip), vehicle: Klucel (hydroxypropylcellulose) (HPC)) 86 % of control and 88 % of control; (dose: 400.0 mg/kg/injection, schedule: Q01DX009 (ip), vehicle: Klucel (hydroxypropylcellulose) (HPC)) 90 % of control.
For the compound `CC(C)OC(=O)Nc1ccc(Cl)cc1Cl`, the T/C was 97 % of control under setting [1], 108 % of control under setting [2] and 108 % of control under setting [3].
Regarding `COc1ccccc1-n1c(O)c(N=Nc2ccc(Br)cc2)c(=O)n(-c2ccc(C)cc2)c1=S`, the T/C is, setting by setting: (dose: 100.0 mg/kg/injection, schedule: Q01DX001 (ip), vehicle: Klucel (hydroxypropylcellulose) (HPC)) 109 % of control; (dose: 200.0 mg/kg/injection, schedule: Q01DX001 (ip), vehicle: Klucel (hydroxypropylcellulose) (HPC)) 102 % of control; (dose: 400.0 mg/kg/injection, schedule: Q01DX001 (ip), vehicle: Klucel (hydroxypropylcellulose) (HPC)) 102 % of control.
`Cc1ccc2c[n+]3cc4ccccc4cc3cc2c1`: the T/C is 93 % of control (dose: 1.56 mg/kg/injection, schedule: Q04DX003 (ip), vehicle: saline); 107 % of control (dose: 3.12 mg/kg/injection, schedule: Q01DX009 (ip), vehicle: saline); 114 % of control (dose: 3.12 mg/kg/injection, schedule: Q04DX003 (ip), vehicle: saline); 105 % of control (dose: 6.25 mg/kg/injection, schedule: Q01DX009 (ip), vehicle: saline); 103 % of control (dose: 6.25 mg/kg/injection, schedule: Q04DX003 (ip), vehicle: saline); 107 % of control (dose: 12.5 mg/kg/injection, schedule: Q04DX003 (ip), vehicle: saline).
As to `COc1ccc(C2(OC)Oc3ccccc3C(=O)C2(O)O)cc1` (configuration not stated), the T/C reads like this: under setting [5], 101 % of control; under setting [6], 104 % of control; under setting [7], 101 % of control; under setting [8], 104 % of control.
For the compound `Cc1nn(CCO)c(C)c1N=[N+]([O-])c1c(C)nn(CCO)c1C`, the T/C (dose: 25.0 mg/kg/injection, schedule: Q01DX009 (ip), vehicle: Klucel (hydroxypropylcellulose) (HPC)) was 93 % of control and 98 % of control; the T/C under setting [9] is 95 % of control; the T/C under setting [4] is 95 % of control and 107 % of control; the T/C (dose: 50.0 mg/kg/injection, schedule: Q04DX002 (ip), vehicle: Klucel (hydroxypropylcellulose) (HPC)) was 101 % of control; the T/C under setting [10] is 96 % of control; the T/C under setting [11] is 96 % of control.
In the case of `CC1NC(=O)OC12CCCCC2` (configuration not stated), the T/C is 96 % of control (dose: 100.0 mg/kg/injection, schedule: Q01DX001 (ip), vehicle: saline with Tween-80); 92 % of control (dose: 200.0 mg/kg/injection, schedule: Q01DX001 (ip), vehicle: saline with Tween-80); 92 % of control (dose: 400.0 mg/kg/injection, schedule: Q01DX001 (ip), vehicle: saline with Tween-80).
In the case of `CC(=O)OCC(C)CCC(=O)C(C)C1C(=O)CC2CC3CC(OC(C)=O)CCC3(C)CC21C` (configuration not stated), the T/C by setting is: under setting [10], 96 % of control; under setting [11], 100 % of control; (dose: 400.0 mg/kg/injection, schedule: Q04DX002 (ip), vehicle: Klucel (hydroxypropylcellulose) (HPC)) 96 % of control.
In the case of `C[C@]12CCC(=O)C=C1CC[C@@H]1[C@@H]2CC[C@@]2(C)[C@H]1CC[C@]2(C)O`, the T/C by setting is: (dose: 100.0 mg/kg/injection, schedule: Q04DX003 (sc), vehicle: steriod suspending solution) 95 % of control; (dose: 200.0 mg/kg/injection, schedule: Q04DX003 (sc), vehicle: steriod suspending solution) 102 % of control; (dose: 400.0 mg/kg/injection, schedule: Q04DX003 (sc), vehicle: steriod suspending solution) 97 % of control.
`CN(C)C/C(=C\c1ccccc1)C(=O)c1ccccc1`: where the note is “dose: 100.0 mg/kg/injection, schedule: Q04DX003 (ip), vehicle: other”, the T/C is 98 % of control.
For the compound `CC(=O)Oc1cc(C)cc(OC(C)=O)n1`, the T/C under setting [5] was 104 % of control, the T/C under setting [6] is 98 % of control, the T/C under setting [7] was 98 % of control and the T/C under setting [8] was 96 % of control.
In the case of `CC(CO)(CO)[N+](=O)[O-]`, the T/C runs as follows: (dose: 100.0 mg/kg/injection, schedule: Q04DX003 (ip), vehicle: saline) 101 % of control; (dose: 200.0 mg/kg/injection, schedule: Q04DX003 (ip), vehicle: saline) 96 % of control; (dose: 400.0 mg/kg/injection, schedule: Q04DX003 (ip), vehicle: saline) 93 % of control.
Turning to `NC(Cc1ccc(OC2CCCC2)c(N(CCCl)CCCl)c1)C(=O)O` (configuration not stated), the T/C was 122 % of control (dose: 0.6 mg/kg/injection, schedule: Q01DX009 (ip), vehicle: carboxymethylcellulose (CMC)); 102 % of control (dose: 3.8 mg/kg/injection, schedule: Q01DX009 (ip), vehicle: saline); 107 % of control (dose: 4.4 mg/kg/injection, schedule: Q01DX001 (ip), vehicle: carboxymethylcellulose (CMC)); 103 % of control (dose: 5.7 mg/kg/injection, schedule: Q01DX009 (ip), vehicle: saline); 111 % of control (dose: 6.6 mg/kg/injection, schedule: Q01DX001 (ip), vehicle: carboxymethylcellulose (CMC)); 111 % of control (dose: 8.5 mg/kg/injection, schedule: Q01DX001 (ip), vehicle: carboxymethylcellulose (CMC)). In addition, the T/C is, setting by setting: (dose: 8.5 mg/kg/injection, schedule: Q01DX009 (ip), vehicle: carboxymethylcellulose (CMC)) 155 % of control; (dose: 8.5 mg/kg/injection, schedule: Q01DX009 (ip), vehicle: saline) 110 % of control; (dose: 8.8 mg/kg/injection, schedule: Q01DX009 (ip), vehicle: carboxymethylcellulose (CMC)) 115 % of control; (dose: 10.0 mg/kg/injection, schedule: Q01DX001 (ip), vehicle: carboxymethylcellulose (CMC)) 120 % of control; (dose: 13.0 mg/kg/injection, schedule: Q01DX001 (ip), vehicle: carboxymethylcellulose (CMC)) 114 % of control; (dose: 13.0 mg/kg/injection, schedule: Q01DX009 (ip), vehicle: carboxymethylcellulose (CMC)) 152 % of control. Moreover, the T/C (dose: 13.3 mg/kg/injection, schedule: Q01DX009 (ip), vehicle: carboxymethylcellulose (CMC)) is 88 % of control; the T/C (dose: 20.0 mg/kg/injection, schedule: Q01DX009 (ip), vehicle: carboxymethylcellulose (CMC)) is 215 % of control; the T/C (dose: 20.0 mg/kg/injection, schedule: Q01DX009 (ip), vehicle: saline) is 119 % of control; the T/C (dose: 30.0 mg/kg/injection, schedule: Q01DX001 (ip), vehicle: carboxymethylcellulose (CMC)) was 202 % of control; the T/C under setting [9] is 98 % of control.
